pIC50: −log10 of the molar value. Like-named read-outs stand apart in the source and are kept apart here.
Legend:
Sirtuin 7 (h) [1] = target: T1, Sirtuin 7 (h) (Homo sapiens, UniProt Q9NRC8); test: Epigenetic enzyme assay, Sirtuins; type: biochemical; settings: Table 10; read-out: Reference IC50
T1 sequence (Q9NRC8 1-400): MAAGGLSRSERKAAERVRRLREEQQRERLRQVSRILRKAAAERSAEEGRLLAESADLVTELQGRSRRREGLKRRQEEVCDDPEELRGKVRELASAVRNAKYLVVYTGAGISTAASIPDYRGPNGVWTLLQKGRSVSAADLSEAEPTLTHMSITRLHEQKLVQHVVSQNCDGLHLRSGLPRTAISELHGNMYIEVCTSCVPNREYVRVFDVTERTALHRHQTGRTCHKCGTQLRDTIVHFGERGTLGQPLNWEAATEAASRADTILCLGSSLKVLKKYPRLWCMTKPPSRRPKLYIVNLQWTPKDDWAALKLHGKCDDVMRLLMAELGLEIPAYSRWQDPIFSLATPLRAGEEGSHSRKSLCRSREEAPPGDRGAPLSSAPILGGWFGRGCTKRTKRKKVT

Sirtuin 7 (h) [2] = target: T1, Sirtuin 7 (h); settings: reference compound; fluorogenic HDAC 25 μM; 60 min/37° C.; cited from earlier work
[3] = target: T2, KAT2A (GCN5L2) (h) bromodomain (Homo sapiens, UniProt Q92830); settings: ligand biotin-H4 tetra acetyl Lys 5/8/12/16 30 nM; 15 min/RT; AlphaScreen; read-out: Reference IC50; cited from earlier work
T2 construct: Bromodomain
T2 sequence (Q92830 728-832 limits assumed): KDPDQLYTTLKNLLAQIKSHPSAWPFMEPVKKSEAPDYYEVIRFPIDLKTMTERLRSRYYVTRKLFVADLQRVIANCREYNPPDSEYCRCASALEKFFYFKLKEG

ASH1L (h) bromodomain [4] = target: T3, ASH1L (h) bromodomain (Homo sapiens, UniProt Q9NR48); test: Epigenetic binding assay, Bromodomain
T3 construct: ASH1L (h) bromodomain

ATAD2A (h) bromodomain [5] = target: T4, ATAD2A (h) bromodomain (Homo sapiens, UniProt Q6PL18); settings: ligand biotin-H4 tetra acetyl Lys 5/8/12/16 100 nM; 30 min/RT; AlphaScreen; read-out: Reference IC50; cited from earlier work
T4 construct: Bromodomain
T4 sequence (Q6PL18 980-1092 limits assumed): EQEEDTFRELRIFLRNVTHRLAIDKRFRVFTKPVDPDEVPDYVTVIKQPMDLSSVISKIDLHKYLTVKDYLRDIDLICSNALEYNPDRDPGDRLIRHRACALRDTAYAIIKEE

ATAD2A (h) bromodomain [6] = target: T4, ATAD2A (h) bromodomain; test: Epigenetic binding assay, Bromodomain; settings: Table 4; read-out: Reference IC50
PCAF (h) bromodomain [7] = target: T5, PCAF (h) bromodomain (Homo sapiens, UniProt Q92831); settings: ligand biotin-H4 tetra acetyl Lys 5/8/12/16 100 nM; 30 min/RT; AlphaScreen; read-out: Reference IC50; cited from earlier work
T5 construct: Bromodomain
T5 sequence (Q92831 723-827 limits assumed): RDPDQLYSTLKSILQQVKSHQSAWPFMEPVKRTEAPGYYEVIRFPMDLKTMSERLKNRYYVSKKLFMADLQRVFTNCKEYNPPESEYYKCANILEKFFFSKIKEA

[8] = target: T2, KAT2A (GCN5L2) (h) bromodomain; test: Epigenetic binding assay, Bromodomain; settings: Table 4; read-out: Reference IC50
ASH1L (h) bromodomain [9] = target: T3, ASH1L (h) bromodomain; settings: ligand biotin-H4 di acetyl Lys 5/8 75 nM; 30 min/RT; AlphaScreen; read-out: Reference IC50; cited from earlier work
PCAF (h) bromodomain [10] = target: T5, PCAF (h) bromodomain; test: Epigenetic binding assay, Bromodomain; settings: Table 4; read-out: Reference IC50
USP 21 (h) [11] = target: T6, USP 21 (h) (Homo sapiens, UniProt Q9UK80); settings: reference compound; LanthaScreen DUB substrate 10 nM, 15 min/RT; cited from earlier work
T6 sequence (Q9UK80 1-565): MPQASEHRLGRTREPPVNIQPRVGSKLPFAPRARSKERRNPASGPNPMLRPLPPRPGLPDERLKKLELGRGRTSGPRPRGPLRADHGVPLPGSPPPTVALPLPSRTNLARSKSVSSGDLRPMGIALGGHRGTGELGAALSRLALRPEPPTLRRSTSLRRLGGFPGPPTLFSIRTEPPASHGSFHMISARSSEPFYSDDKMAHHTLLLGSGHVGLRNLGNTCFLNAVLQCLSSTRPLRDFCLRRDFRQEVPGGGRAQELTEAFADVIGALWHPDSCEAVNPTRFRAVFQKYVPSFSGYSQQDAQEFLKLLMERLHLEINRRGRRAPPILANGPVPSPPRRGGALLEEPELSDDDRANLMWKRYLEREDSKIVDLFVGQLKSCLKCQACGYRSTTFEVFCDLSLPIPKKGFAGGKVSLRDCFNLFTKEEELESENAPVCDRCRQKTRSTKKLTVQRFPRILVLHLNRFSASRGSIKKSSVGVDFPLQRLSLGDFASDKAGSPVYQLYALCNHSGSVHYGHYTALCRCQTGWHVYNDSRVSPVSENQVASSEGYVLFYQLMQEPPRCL

USP 7 (h) [12] = target: T7, USP 7 (h) (Homo sapiens, UniProt Q93009); settings: reference compound; LanthaScreen DUB substrate 10 nM, 60 min/RT; cited from earlier work
T7 sequence (Q93009 whole entry): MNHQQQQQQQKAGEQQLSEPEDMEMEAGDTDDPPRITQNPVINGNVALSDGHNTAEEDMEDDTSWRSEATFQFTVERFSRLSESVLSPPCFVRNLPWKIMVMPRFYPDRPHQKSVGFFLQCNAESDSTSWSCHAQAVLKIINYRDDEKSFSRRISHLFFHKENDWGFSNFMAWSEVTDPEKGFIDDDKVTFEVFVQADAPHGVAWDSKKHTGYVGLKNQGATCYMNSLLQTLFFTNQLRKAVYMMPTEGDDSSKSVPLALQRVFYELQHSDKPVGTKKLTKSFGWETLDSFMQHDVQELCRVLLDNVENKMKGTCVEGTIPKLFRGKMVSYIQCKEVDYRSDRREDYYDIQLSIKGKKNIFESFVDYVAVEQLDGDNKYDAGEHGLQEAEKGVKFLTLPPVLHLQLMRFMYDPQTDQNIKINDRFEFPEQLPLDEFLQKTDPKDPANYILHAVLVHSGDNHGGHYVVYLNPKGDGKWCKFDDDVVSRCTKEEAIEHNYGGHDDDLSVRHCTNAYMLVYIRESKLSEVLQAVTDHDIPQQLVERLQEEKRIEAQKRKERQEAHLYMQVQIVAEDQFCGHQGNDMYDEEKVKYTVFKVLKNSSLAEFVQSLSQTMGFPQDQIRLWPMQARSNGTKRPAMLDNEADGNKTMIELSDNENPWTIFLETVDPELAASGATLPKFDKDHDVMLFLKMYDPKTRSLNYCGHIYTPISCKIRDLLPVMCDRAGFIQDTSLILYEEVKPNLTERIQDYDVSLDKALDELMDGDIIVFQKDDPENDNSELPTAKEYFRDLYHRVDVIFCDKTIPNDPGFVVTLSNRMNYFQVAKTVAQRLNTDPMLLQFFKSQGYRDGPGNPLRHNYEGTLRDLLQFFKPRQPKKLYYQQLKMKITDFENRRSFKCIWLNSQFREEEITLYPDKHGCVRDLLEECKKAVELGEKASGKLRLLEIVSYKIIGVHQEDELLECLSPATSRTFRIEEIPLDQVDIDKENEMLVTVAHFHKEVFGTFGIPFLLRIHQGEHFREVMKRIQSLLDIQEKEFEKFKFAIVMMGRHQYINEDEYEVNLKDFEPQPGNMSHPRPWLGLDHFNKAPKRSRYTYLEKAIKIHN

USP 10 (h) = USP 10 (h) (Homo sapiens, UniProt Q14694); settings: reference compound; LanthaScreen DUB substrate 10 nM, 60 min/22° C.; cited from earlier work
Chain of USP 10 (h) (Q14694 whole entry): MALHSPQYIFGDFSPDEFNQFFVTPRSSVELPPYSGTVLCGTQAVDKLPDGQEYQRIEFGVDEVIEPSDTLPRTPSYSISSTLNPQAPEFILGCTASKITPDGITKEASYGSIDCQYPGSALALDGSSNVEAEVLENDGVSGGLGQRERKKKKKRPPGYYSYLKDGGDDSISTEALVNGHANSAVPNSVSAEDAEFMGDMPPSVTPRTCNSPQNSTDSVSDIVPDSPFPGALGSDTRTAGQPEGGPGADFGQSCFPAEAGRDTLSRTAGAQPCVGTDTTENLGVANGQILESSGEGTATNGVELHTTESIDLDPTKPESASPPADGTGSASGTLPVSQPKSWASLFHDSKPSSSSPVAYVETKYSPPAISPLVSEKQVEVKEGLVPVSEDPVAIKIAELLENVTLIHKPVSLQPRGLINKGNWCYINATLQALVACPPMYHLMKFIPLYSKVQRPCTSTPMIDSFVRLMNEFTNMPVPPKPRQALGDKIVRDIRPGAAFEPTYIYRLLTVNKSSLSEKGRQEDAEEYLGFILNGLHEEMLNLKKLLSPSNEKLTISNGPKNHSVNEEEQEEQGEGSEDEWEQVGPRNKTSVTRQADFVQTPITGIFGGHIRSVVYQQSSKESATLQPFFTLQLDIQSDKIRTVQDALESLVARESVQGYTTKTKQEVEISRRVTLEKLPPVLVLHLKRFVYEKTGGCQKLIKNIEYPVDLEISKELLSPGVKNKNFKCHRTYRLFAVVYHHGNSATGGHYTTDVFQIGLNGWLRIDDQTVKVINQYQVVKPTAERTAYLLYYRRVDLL

USP 21 (h) [13] = target: T6, USP 21 (h); test: Epigenetic enzyme assay, Ubiquitin modifying enzymes; type: biochemical; settings: Table 10; read-out: Reference IC50
BAP1 (h) [14] = target: T8, BAP1 (h) (Homo sapiens, UniProt Q92560); test: as above; type: biochemical; settings: Table 10; read-out: Reference IC50
T8 sequence (Q92560 1-729): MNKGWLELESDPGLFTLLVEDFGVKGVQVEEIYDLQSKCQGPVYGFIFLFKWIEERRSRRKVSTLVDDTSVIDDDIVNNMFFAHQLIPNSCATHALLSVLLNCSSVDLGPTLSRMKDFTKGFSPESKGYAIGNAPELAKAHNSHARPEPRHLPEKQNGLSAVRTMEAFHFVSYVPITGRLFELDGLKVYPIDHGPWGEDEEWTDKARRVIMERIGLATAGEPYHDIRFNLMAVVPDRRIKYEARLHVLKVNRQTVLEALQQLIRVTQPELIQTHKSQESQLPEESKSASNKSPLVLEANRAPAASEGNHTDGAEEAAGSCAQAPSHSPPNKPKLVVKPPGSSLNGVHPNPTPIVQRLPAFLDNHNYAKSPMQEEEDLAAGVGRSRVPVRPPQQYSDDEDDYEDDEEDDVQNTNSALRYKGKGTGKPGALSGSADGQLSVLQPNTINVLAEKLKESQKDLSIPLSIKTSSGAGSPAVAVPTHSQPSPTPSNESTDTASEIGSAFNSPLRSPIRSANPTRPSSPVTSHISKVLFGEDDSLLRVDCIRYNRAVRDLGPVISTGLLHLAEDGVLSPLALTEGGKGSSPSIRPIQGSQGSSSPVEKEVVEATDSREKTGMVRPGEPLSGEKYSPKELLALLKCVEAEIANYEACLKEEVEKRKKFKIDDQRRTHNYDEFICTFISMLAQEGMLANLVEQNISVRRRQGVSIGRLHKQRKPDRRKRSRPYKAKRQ

USP 7 (h) [15] = target: T7, USP 7 (h); test: as above; type: biochemical; settings: Table 10; read-out: Reference IC50
USP 14 (h) [16] = target: T9, USP 14 (h) (Homo sapiens, UniProt P54578); test: as above; type: biochemical; settings: Table 10; read-out: Reference IC50
T9 sequence (P54578 whole entry): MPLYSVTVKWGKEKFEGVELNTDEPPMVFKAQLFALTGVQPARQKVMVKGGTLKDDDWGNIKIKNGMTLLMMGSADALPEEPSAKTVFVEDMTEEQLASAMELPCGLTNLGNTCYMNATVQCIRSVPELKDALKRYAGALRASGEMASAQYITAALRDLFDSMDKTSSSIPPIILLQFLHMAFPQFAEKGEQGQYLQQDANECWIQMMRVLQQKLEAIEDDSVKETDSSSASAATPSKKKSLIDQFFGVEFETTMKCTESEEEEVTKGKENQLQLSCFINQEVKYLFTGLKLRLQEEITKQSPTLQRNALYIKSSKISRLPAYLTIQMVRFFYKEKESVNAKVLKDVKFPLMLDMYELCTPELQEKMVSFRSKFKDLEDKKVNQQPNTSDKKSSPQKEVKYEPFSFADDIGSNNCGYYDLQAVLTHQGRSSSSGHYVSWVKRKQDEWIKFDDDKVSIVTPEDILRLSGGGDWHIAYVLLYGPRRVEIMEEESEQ

USP 14 (h) [17] = target: T9, USP 14 (h); settings: reference compound; LanthaScreen DUB substrate 10 nM, 240 min/RT; cited from earlier work
BAP1 (h) [18] = target: T8, BAP1 (h); settings: reference compound; LanthaScreen DUB substrate 20 nM, 180 min/RT; cited from earlier work

What does the source list for `O=C1c2ccccc2C(=O)c2c(NCCc3ccc(O)cc3)ccc(NCCc3ccc(O)cc3)c21` [JFD00244, reference compound]?
pIC50 (Sirtuin 7 (h) [1]): 2.89; pIC50 (Sirtuin 7 (h) [2]): 2.89

What does the source list for `Cc1sc2c(c1C)C(c1ccc(Cl)cc1)=N[C@@H](CC(=O)OC(C)(C)C)c1nnc(C)n1-2` [JQ-1, reference compound]?
pIC50 [3]: 4.35; pIC50 (ASH1L (h) bromodomain [4]; Table 4, read-out: Reference IC50): 4.86; pIC50 (ASH1L (h) bromodomain [4]; Table 9, inhibition/concentration-response curve, read-out: IC50): 5.06; pIC50 (ATAD2A (h) bromodomain [5]): 4.15; pIC50 (ATAD2A (h) bromodomain [6]): 4.15; pIC50 (PCAF (h) bromodomain [7]): 4.92; pIC50 [8]: 4.35; pIC50 (ASH1L (h) bromodomain [9]): 4.86; pIC50 (PCAF (h) bromodomain [10]): 4.92

With Ubiquitin Aldehyde as the molecule, how does the pIC50 (USP 21 (h) [11]) read?
The pIC50 was 6.77.

What about the pIC50 (USP 7 (h) [12]) of the same molecule?
Its pIC50 is 6.96.

What about the pIC50 (USP 10 (h)) of the same molecule?
The pIC50 was 6.64.

What about the pIC50 (USP 21 (h) [13]) of the same molecule?
Its pIC50 is 6.77.

What about the pIC50 (BAP1 (h) [14]) of the same molecule?
Its pIC50 is 6.64.

What about the pIC50 (USP 7 (h) [15]) of the same molecule?
Its pIC50 is 6.96.

What about the pIC50 (USP 14 (h) [16]) of the same molecule?
The pIC50 was 8.40.

What about the pIC50 (USP 14 (h) [17]) of the same molecule?
Its pIC50 is 8.40.

What about the pIC50 (BAP1 (h) [18]) of the same molecule?
The pIC50 was 6.64.

— patent US11331299B2, “Medicinal use of serrulatane diterpenes” (The University of Sydney, priority 2016, dated 2022)
